Like-named read-outs stand apart in the source and are kept apart here.
Biological target: T1, hAR (human androgen receptor, baculovirus/Sf9 generated extracts) (Homo sapiens, UniProt P10275)
T1 construct: made in house; host or cells: baculovirus/Sf9 insect cells (crude extract)
T1 sequence (P10275 1-920): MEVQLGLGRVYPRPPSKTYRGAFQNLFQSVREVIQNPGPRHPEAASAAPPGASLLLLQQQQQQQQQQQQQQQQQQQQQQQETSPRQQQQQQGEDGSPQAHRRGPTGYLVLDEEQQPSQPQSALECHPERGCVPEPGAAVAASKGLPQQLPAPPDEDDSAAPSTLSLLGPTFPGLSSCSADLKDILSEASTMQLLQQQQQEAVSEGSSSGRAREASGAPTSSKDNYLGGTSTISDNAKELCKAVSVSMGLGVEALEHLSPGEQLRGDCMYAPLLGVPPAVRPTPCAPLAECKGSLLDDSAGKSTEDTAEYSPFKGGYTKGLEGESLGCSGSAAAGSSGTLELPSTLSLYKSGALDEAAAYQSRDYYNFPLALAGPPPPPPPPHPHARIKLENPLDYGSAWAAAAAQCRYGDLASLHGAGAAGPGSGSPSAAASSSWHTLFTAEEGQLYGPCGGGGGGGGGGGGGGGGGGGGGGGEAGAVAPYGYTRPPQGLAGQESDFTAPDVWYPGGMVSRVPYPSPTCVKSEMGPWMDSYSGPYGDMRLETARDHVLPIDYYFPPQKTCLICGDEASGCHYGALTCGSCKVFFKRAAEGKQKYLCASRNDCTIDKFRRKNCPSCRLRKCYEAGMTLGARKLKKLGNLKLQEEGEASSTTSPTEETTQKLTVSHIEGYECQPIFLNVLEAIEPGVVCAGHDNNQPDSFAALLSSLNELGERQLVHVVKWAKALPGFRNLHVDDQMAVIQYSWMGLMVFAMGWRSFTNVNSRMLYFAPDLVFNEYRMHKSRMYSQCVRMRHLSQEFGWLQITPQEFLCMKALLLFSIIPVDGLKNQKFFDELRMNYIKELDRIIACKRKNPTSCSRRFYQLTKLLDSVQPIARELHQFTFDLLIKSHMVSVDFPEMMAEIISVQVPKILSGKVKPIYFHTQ
Assay: AR Binding Assay (competitive binding with 3H-DHT tracer)
Details: 1 nM 3H-DHT, one hour at 4° C., mean of multiple tests
Summary of the method: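 Compounds at decreasing concentrations were incubated with baculovirus/Sf9 hAR extract, hydroxylapatite and 1 nM ^3H-DHT for one hour at 4° C., then washed three times. The value is the compound concentration inhibiting half of maximum ^3H-DHT binding, reported as the mean of multiple tests.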

[1] = hAR extract, read-out: AR Binding IC50

| Compound | IC50 (AR Binding IC50, hAR extract) | IC50 [1] |
| --- | --- | --- |
| CC(Oc1ccc(C#N)c(C(F)(F)F)c1)c1ccccc1 (racemic) [Example 1, 4-(1-Phenyl-ethoxy)-2-trifluoromethyl-benzonitrile] | 0.01 µM | – |
| CCCC(Oc1ccc(C#N)c(C(F)(F)F)c1)c1cccc(O)c1 (racemic) [Example 14, 4-[1-(3-Hydroxyphenyl)butoxy]-2-(trifluoromethyl)benzonitrile] | 0.018 µM | – |
| CCCC(Oc1ccc(C#N)c(C(F)(F)F)c1)c1cccc(O)c1 (single isomer, unassigned; (+)) [Example 15, (+)4-[1-(3-Hydroxyphenyl)butoxy]-2-(trifluoromethyl)benzonitrile] | 0.02 µM | – |
| CC(C)CC(Oc1ccc(C#N)c(C(F)(F)F)c1)c1cccc(O)c1 (single isomer, unassigned; (+)) [Example 21, (+)4-[1-(3-Hydroxyphenyl)-3-methylbutoxy]-2-(trifluoromethyl)benzonitrile] | 0.066 µM | – |
| CC(Oc1ccc(C#N)c(C(F)(F)F)c1)c1cncc(O)c1 (single isomer, unassigned; (+)) [Example 74, (+)4-[1-(5-Hydroxypyridin-3-yl)ethoxy]-2-(trifluoromethyl)benzonitrile] | – | 0.035 µM |
| CC(Oc1ccc(C#N)c(C(F)(F)F)c1)c1cccc(O)c1 (single isomer, unassigned; (-)) [Example 9, (−)-4-[1-(3-Hydroxyphenyl)ethoxy]-2-(trifluoromethyl)benzonitrile] | 0.056 µM | – |
| C=CCC(Oc1ccc(C#N)c(C(F)(F)F)c1)c1cccc(O)c1 (single isomer, unassigned; (-)) [Example 19, (−)4-{[1-(3-Hydroxyphenyl)but-3-enyl]oxy}-2-(trifluoromethyl)benzonitrile] | 0.185 µM | – |
| N#Cc1ccc(OCc2cccc(O)c2)cc1C(F)(F)F [Example 6, 4-[(3-Hydroxybenzyl)oxy]-2-(trifluoromethyl)benzonitrile] | 0.012 µM | – |
| CCC(Oc1ccc(C#N)c(C(F)(F)F)c1)c1ccccn1 (stereo not drawn) [Example 79, 4-(1-Pyridin^−2-yl-propoxy)-2-trifluoromethyl-benzonitrile] | 0.148 µM | – |
| COc1cccc(C(C)Oc2ccc(C#N)c(C(F)(F)F)c2)n1 (stereo not drawn) [Example 80, 4-[1-(6-Methoxy-pyridin-2-yl)-ethoxy]-2-trifluoromethyl-benzonitrile] | – | 0.12 µM |
| CC(C)CC(Oc1ccc(C#N)c(C(F)(F)F)c1)c1cccnc1 (stereo not drawn) [Example 88, 4-(3-Methyl-1-pyridin-3-yl-butoxy)-2-trifluoromethyl-benzonitrile] | 0.218 µM | – |
| Cc1ccc(C(CC(C)C)Oc2ccc(C#N)c(C(F)(F)F)c2)cn1 (stereo not drawn) [Example 89, 4-[3-Methyl-1-(6-methyl-pyridin-3-yl)-butoxy]-2-trifluoromethyl-benzonitrile] | 0.137 µM | – |

From US20090170886A1 (Pfizer Inc, priority 2005, published 2009)
